For 23 molecules, pest or weed control results are on record in US11083199B2, “Heterocycle derivatives as pesticides” (Bayer Aktiengesellschaft, priority 2017, dated 2021).

Type in all cases: in vivo
One assay concerns Lucilia cuprina. Put plainly: Lucilia cuprina test. The settings on record: 48 h, application rate 100 ppm, L1 larvae, kill after 2 days, read-out: efficacy. As to the method:
Solvent: dimethyl sulfoxide To produce a suitable active ingredient formulation, 10 mg of active ingredient are mixed with 0.5 ml of dimethyl sulfoxide, and the concentrate is diluted with water to the desired concentration. About 20 L1 larvae of the Australian sheep blowfly (Lucilia cuprina) are transferred into a test vessel containing minced horsemeat and the active ingredient formulation of the desired concentration. After 2 days, the kill in % is determined. 100% means that all the larvae have been killed; 0% means that no larvae have been killed.

Assay [1] deals with Myzus persicae. Put plainly: Myzus persicae oral test. As to conditions: 120 h, application rate 4 ppm, after 5 days, read-out: efficacy. As to the method:
[table] To produce a suitable active ingredient formulation, 1 part by weight of active ingredient is dissolved with the stated parts by weight of solvent and made up to the desired concentration with water. 50 μl of the active ingredient formulation are transferred into microtitre plates and made up to a final volume of 200 μl with 150 μl of IPL41 insect medium (33%+15% sugar). Subsequently, the plates are sealed with parafilm, which a mixed population of green peach aphids (Myzus persicae) within a second microtitre plate is able to puncture and imbibe the solution. After 5 days, the efficacy in % is determined. 100% means that all the aphids have been killed; 0% means that no aphids have been killed.

Assay [2] concerns Myzus persicae. Put plainly: Myzus persicae spray test. The settings on record: foliar, 120 h, application rate 100 g/ha, Chinese cabbage leaf discs, after 5 days, read-out: efficacy. As to the method: (§1) [table] To produce a suitable active ingredient formulation, 1 part by weight of active ingredient is dissolved with the specified parts by weight of solvent and made up to the desired concentration with water containing an emulsifier concentration of 1000 ppm. To produce further test concentrations, the formulation is diluted with emulsifier-containing water. Discs of Chinese cabbage leaves (Brassica pekinensis) infested by all stages of the green peach aphid (Myzus persicae) are sprayed with an active ingredient formulation of the desired concentration. After 5 days, the efficacy in % is determined. 100% means that all the aphids have been killed; 0% means that no aphids have been killed.

For a further assay, the system named is Phaedon cochleariae. Put plainly: Phaedon cochleariae spray test. As to conditions: 168 h, application rate 100 g/ha, larvae, after 7 days, read-out: efficacy. As to the method: as §1, with “pekinensis)” for “pekinensis) infested by all stages of the green peach aphid (Myzus persicae)”, “concentration and, after drying, populated with larvae of the mustard beetle (Phaedon cochleariae).” for “concentration.”, “7” for “5”, “beetle larvae” for “aphids”

A further assay concerns Spodoptera frugiperda. Put plainly: Spodoptera frugiperda spray test. The settings on record: foliar, 168 h, application rate 100 g/ha, maize leaf discs, caterpillars, after 7 days, read-out: efficacy. As to the method: [table] To produce a suitable active ingredient formulation, 1 part by weight of active ingredient is dissolved with the specified parts by weight of solvent and made up to the desired concentration with water containing an emulsifier concentration of 1000 ppm. To produce further test concentrations, the formulation is diluted with emulsifier-containing water. Leaf discs of maize (Zea mays) are sprayed with an active ingredient formulation of the desired concentration and, after drying, populated with caterpillars of the fall armyworm (Spodoptera frugiperda). After 7 days, the efficacy in % is determined. 100% means that all the caterpillars have been killed; 0% means that no caterpillar has been killed.

Another assay concerns Ctenocephalides felis. Put plainly: Ctenocephalides felis oral test. The settings on record: 48 h, application rate 100 ppm in citrated cattle blood, kill after 2 days, read-out: efficacy. As to the method: Solvent: dimethyl sulfoxide To produce a suitable active ingredient formulation, 10 mg of active ingredient are mixed with 0.5 ml of dimethyl sulfoxide. Dilution with citrated cattle blood gives the desired concentration. About 20 unfed adult cat fleas (Ctenocephalides felis) are placed into a chamber which is closed at the top and bottom with gauze. A metal cylinder whose bottom end is closed with parafilm is placed onto the chamber. The cylinder contains the blood/active ingredient formulation, which can be imbibed by the fleas through the parafilm membrane. After 2 days, the kill in % is determined. 100% means that all of the fleas have been killed; 0% means that none of the fleas have been killed.

As for `C=C(C)c1nc(-c2nc3cc(C(F)(F)F)ncc3n2C)c(S(=O)(=O)CC)n1C` [Example I-008], in the assay with Lucilia cuprina, the pest or weed control at 100 ppm is 100%. The pest or weed control at 4 ppm in the assay with Myzus persicae [1] was determined as 100%. In addition, in the assay with Myzus persicae [2], the pest or weed control at 100 g/ha was found to be 90%.
`CCS(=O)(=O)c1c(-c2nc3cc(C(F)(F)F)ncc3n2C)nc(-c2ccc(Cl)s2)n1C` [Example I-057]: in the assay with Myzus persicae [1], the pest or weed control at 4 ppm was 100%. The pest or weed control at 100 g/ha is 90% in the assay with Myzus persicae [2], 100% in the assay on Phaedon cochleariae and 67% with Spodoptera frugiperda.
In the case of `CCS(=O)(=O)c1c(-c2nc3cc(C(F)(F)F)ncc3n2C)nc(C(=O)N(C)C)n1C` [Example I-040], the pest or weed control at 100 ppm with Ctenocephalides felis was determined as 90%; in the assay on Lucilia cuprina, 100%. Besides, the pest or weed control at 4 ppm with Myzus persicae [1] came to 100%. Further, the pest or weed control at 100 g/ha with Myzus persicae [2] is 100%.
As to `CCS(=O)(=O)c1c(-c2nc3cc(C(F)(F)F)ncc3n2C)nc(-n2cc(Cl)cn2)n1C` [Example I-027, 2-[2-(4-chloro-1H-pyrazol-1-yl)-5-(ethylsulfonyl)-1-methyl-1H-imidazol-4-yl]-3-methyl-6-(trifluoromethyl)-3H-imidazo[4,5-c]pyridine], in the assay with Myzus persicae [1], the pest or weed control at 4 ppm was determined as 100%. The figures for the pest or weed control at 100 g/ha with Myzus persicae [2], in the assay on Phaedon cochleariae and with Spodoptera frugiperda were 90%, 100% and 100%, respectively.
For `CCS(=O)(=O)c1c(-c2nc3cc(C(F)(F)F)ncc3n2C)nc(Cl)n1C(C)C` [Example I-025], the pest or weed control at 100 ppm with Ctenocephalides felis is 80%. The pest or weed control at 4 ppm with Myzus persicae [1] was 100%. For the same molecule, in the assay with Spodoptera frugiperda, the pest or weed control at 100 g/ha stood at 100%.
As to `CCS(=O)(=O)c1c(-n2cc3ncc(C(F)(F)F)cc3n2)nc(-c2ccc(Cl)cc2)n1C` [Example I-094], the pest or weed control at 4 ppm in the assay with Myzus persicae [1] amounted to 100%. Moreover, the pest or weed control at 100 g/ha was found to be 83% in the assay with Phaedon cochleariae and 100% in the assay with Spodoptera frugiperda.
For the molecule `CCS(=O)(=O)c1c(-c2nc3cc(C(F)(F)F)ncc3n2C)nc(-c2ccsc2)n1C` [Example I-043], the pest or weed control at 100 ppm in the assay on Lucilia cuprina was 100%. The pest or weed control at 4 ppm in the assay with Myzus persicae [1] is 100%. In addition, the pest or weed control at 100 g/ha with Myzus persicae [2] came out at 90%.
For `CCS(=O)(=O)c1c(-n2cc3ncc(C(F)(F)F)cc3n2)nc(-c2ccc(C(F)(F)F)cc2)n1C` [Example I-098, 2-{5-(Ethylsulfonyl)-1-methyl-2-[4-(trifluoromethyl)phenyl]-1H-imidazol-4-yl}-6-(trifluoromethyl)-2H-pyrazolo[4,3-b]pyridine], the pest or weed control at 4 ppm with Myzus persicae [1] stood at 100%. Also, the pest or weed control at 100 g/ha in the assay with Phaedon cochleariae and with Spodoptera frugiperda was 100% in each case.
For the molecule `CCS(=O)(=O)c1c(-c2nc3cc(C(F)(F)F)ncc3n2C)nc(C(N)=O)n1C` [Example I-038, 5-(Ethylsulfonyl)-1-methyl-4-[3-methyl-6-(trifluoromethyl)-3H-imidazo[4,5-c]pyridin-2-yl]-1H-imidazole-2-carboxamide], in the assay on Ctenocephalides felis, the pest or weed control at 100 ppm was determined as 100%. Also, the pest or weed control at 4 ppm in the assay with Myzus persicae [1] is 100%. Also, the values for the pest or weed control at 100 g/ha with Myzus persicae [2] and with Phaedon cochleariae were 90% and 100%, respectively.
With `CCS(=O)(=O)c1c(-c2nc3cc(C(F)(F)F)nnc3n2C)nc(-c2ccc(Cl)cc2)n1C` [Example I-063], the pest or weed control at 4 ppm in the assay on Myzus persicae [1] was 100%. For the same molecule, the pest or weed control at 100 g/ha in the assay on Myzus persicae [2], in the assay on Phaedon cochleariae and in the assay with Spodoptera frugiperda was 100% throughout.
Turning to `CCS(=O)(=O)c1c(-c2nc3cc(C(F)(F)F)ncc3n2C)nc(-c2ccncc2)n1C` [Example I-021], in the assay with Lucilia cuprina, the pest or weed control at 100 ppm came out at 80%. In addition, the pest or weed control at 4 ppm in the assay on Myzus persicae [1] is 100%. Moreover, the pest or weed control at 100 g/ha with Myzus persicae [2] was 100%.
In the case of `CCS(=O)(=O)c1c(-c2nc3cc(C(F)(F)F)ncc3n2C)nc(C(N)=S)n1C` [Example I-046, 5-(Ethylsulfonyl)-1-methyl-4-[3-methyl-6-(trifluoromethyl)-3H-imidazo[4,5-c]pyridin-2-yl]-1H-imidazole-2-carbothioamide], the pest or weed control at 100 ppm in the assay on Lucilia cuprina is 95%. Besides, in the assay with Myzus persicae [1], the pest or weed control at 4 ppm came out at 100%. Moreover, the pest or weed control at 100 g/ha in the assay on Phaedon cochleariae is 100%.
For the molecule `CCS(=O)(=O)c1c(-n2cc3cnc(C(F)(F)F)cc3n2)nc(-c2ccc(C(F)(F)F)cc2)n1C` [Example I-097], the pest or weed control at 4 ppm in the assay with Myzus persicae [1] was determined as 100%. In addition, the pest or weed control at 100 g/ha in the assay on Phaedon cochleariae and in the assay with Spodoptera frugiperda was 100% in each case.
Take `CCS(=O)(=O)c1c(-c2nc3cc(C(F)(F)F)ncc3n2C)nc(-c2ccc(C3(C#N)CC3)cc2)n1C` [Example I-069]: the pest or weed control at 4 ppm in the assay on Myzus persicae [1] was determined as 100%. In addition, the pest or weed control at 100 g/ha came to 90% with Myzus persicae [2], 100% in the assay with Phaedon cochleariae and 100% in the assay with Spodoptera frugiperda.
Turning to `CCS(=O)(=O)c1c(-c2nc3cc(C(F)(F)F)ncc3n2C)nc(-c2cc(Cl)c(C(F)(F)F)cc2C)n1C` [Example I-081], in the assay on Myzus persicae [1], the pest or weed control at 4 ppm turned out to be 100%. In addition, the pest or weed control at 100 g/ha in the assay on Phaedon cochleariae and with Spodoptera frugiperda was 100% in each case.
For `CCS(=O)(=O)c1c(-n2cc3cnc(C(F)(F)F)cc3n2)nc(-c2ccc(Cl)cc2)n1C` [Example I-093], in the assay on Myzus persicae [1], the pest or weed control at 4 ppm is 100%. For the same molecule, the pest or weed control at 100 g/ha with Phaedon cochleariae and with Spodoptera frugiperda was 100% throughout.
For the molecule `CCS(=O)(=O)c1c(-c2nc3cc(C(F)(F)F)ncc3n2C)nc(-c2ccn(C)n2)n1C` [Example I-060], in the assay on Myzus persicae [1], the pest or weed control at 4 ppm was determined as 100%. Further, the values for the pest or weed control at 100 g/ha with Myzus persicae [2], in the assay on Phaedon cochleariae and with Spodoptera frugiperda were 100%, 100% and 83%, respectively.
In the case of `CCn1c(Br)nc(-c2nc3cc(C(F)(F)F)ncc3n2C)c1S(=O)(=O)CC` [Example I-001], the pest or weed control at 100 ppm in the assay on Lucilia cuprina was found to be 100%. For the same molecule, in the assay with Myzus persicae [1], the pest or weed control at 4 ppm came to 100%.
For `CCS(=O)(=O)c1c(-c2nc3cc(C(F)(F)F)ncc3n2C)nc(-c2ccnnc2)n1C` [Example I-030], the pest or weed control at 100 ppm in the assay on Lucilia cuprina stood at 100%. Besides, the pest or weed control at 4 ppm in the assay on Myzus persicae [1] came out at 100%. In addition, the pest or weed control at 100 g/ha with Myzus persicae [2] turned out to be 100%.
Take `CCS(=O)(=O)c1c(-c2nc3cc(C(F)(F)F)ncc3n2C)nc(C(=O)NC)n1C` [Example I-039]: the pest or weed control at 100 ppm with Ctenocephalides felis was found to be 100%. Besides, in the assay on Myzus persicae [1], the pest or weed control at 4 ppm was found to be 100%. The pest or weed control at 100 g/ha in the assay with Myzus persicae [2] turned out to be 100%.
On to `CCS(=O)(=O)c1c(-c2nc3cc(C(F)(F)F)ncc3n2C)nc(-c2ccccc2)n1C(C)C` [Example I-012], for which the pest or weed control at 100 ppm in the assay with Lucilia cuprina came out at 100%. In addition, the pest or weed control at 4 ppm in the assay with Myzus persicae [1] worked out at 100%. Also, in the assay on Myzus persicae [2], the pest or weed control at 100 g/ha came to 90%.
As to `CCS(=O)(=O)c1c(-c2nc3cc(C(F)(F)F)ncc3n2C)nc(C#CC2CC2)n1C` [Example I-024], the pest or weed control at 4 ppm in the assay on Myzus persicae [1] worked out at 90%. In addition, the pest or weed control at 100 g/ha in the assay on Phaedon cochleariae and in the assay on Spodoptera frugiperda was 100% throughout.
As for `CCS(=O)(=O)c1c(-n2cc3ncc(C(F)(F)F)cc3n2)nc(-c2ccccc2)n1C` [Example I-096], the pest or weed control at 4 ppm in the assay on Myzus persicae [1] came out at 90%. Besides, the pest or weed control at 100 g/ha turned out to be 90% with Myzus persicae [2], 100% in the assay on Phaedon cochleariae and 83% with Spodoptera frugiperda.
